According to US20230265068A1, “TRANSIENT RECEPTOR POTENTIAL CANONICAL 3 INHIBITORS AND METHODS OF USE THEREOF” (University of Tennessee Research Foundation, priority 2020, published 2023):

Tests used:
[1] = metabolic stability in mouse liver microsomes; format: in vitro ADME; details: mouse, microsomes
Protocol: The metabolic stability of compound 22 was tested prior to the next phase of in vivo study. […] The maximum tolerated dose (MTD) study was subsequently performed to investigate its in vivo toxicity (FIGS. 4A and 4B). The second major limitation of Pyr3 is its toxicity due to its alkylating tail moiety. While replacing only the fast-metabolizing head ester group in Pyr3 with a stable amide (compound 79) improved metabolic stability, a single IP injection of compound 79 at 200 mg/kg killed all mice within 24 h.

TRPC3 = target: T1, TRPC3 (Homo sapiens, UniProt Q13507); experiment: LC-MS detection of compound bound to affinity-purified TRPC3 protein after size-exclusion chromatography; format: binding; parameters: made in house; details: 1 h incubation, free compound removed
T1 sequence (Q13507 1-921): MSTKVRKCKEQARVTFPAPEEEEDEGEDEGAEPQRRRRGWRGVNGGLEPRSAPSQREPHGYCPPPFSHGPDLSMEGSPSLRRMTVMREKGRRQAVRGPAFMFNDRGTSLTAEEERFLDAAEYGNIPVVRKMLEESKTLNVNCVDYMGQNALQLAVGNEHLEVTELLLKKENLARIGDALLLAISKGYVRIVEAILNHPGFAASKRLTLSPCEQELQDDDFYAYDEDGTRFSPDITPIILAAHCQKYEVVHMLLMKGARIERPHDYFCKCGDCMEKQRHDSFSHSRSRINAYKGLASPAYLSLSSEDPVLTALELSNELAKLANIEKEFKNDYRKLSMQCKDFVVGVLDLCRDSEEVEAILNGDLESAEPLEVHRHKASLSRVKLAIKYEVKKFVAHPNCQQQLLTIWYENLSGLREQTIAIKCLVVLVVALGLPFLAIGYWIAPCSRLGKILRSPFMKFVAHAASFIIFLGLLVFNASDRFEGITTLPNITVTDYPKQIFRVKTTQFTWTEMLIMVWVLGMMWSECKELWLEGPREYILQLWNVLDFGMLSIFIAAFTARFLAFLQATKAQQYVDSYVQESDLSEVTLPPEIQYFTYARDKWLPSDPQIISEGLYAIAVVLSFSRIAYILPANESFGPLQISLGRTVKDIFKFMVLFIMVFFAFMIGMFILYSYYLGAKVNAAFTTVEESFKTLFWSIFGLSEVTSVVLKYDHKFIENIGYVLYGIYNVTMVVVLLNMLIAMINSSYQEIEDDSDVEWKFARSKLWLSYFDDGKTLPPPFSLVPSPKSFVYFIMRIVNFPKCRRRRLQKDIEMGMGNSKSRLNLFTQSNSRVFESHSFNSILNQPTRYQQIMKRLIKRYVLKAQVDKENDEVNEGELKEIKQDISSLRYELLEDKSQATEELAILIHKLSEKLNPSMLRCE
Protocol: LC-MS technique was employed to find some evidence of the on-target engagement of compound 22 with TRPC3. Biochemical quantities of affinity-purified TRPC3 protein was successfully generated before and was confirmed by SDS-PAGE.21 After incubation of compound 22 with TRPC3 protein for 1 h, repeated size-exclusion chromatography was used to completely remove free compound 22 from the protein-bound fraction. Methanol was then added to this complex to denature the protein and extract the bound compound.

SMILES: CCNC(=O)c1cnn(-c2ccc(-n3ccc(Cl)c(Cl)c3=O)cc2)c1C(F)(F)F [Compound 22]
- half-life [1]: > 4 h
- binding to TRPC3 protein (compound detected by LC-MS in extract of purified complex) (TRPC3): direct binding
